Measurements taken from patent publication US11607422B2, “Uttroside B and derivatives thereof as therapeutics for hepatocellular carcinoma” (Rajiv Gandhi Centre for Biotechnology, an Autonomous …, priority 2016, dated 2023).

Legend:
[1] = system: HepG2 cells; assay: MTT cell viability assay in HepG2 cells; type: cell-based, human; conditions: 72 h, MTT assay; read-out: IC50, cytotoxicity towards HepG2 cells
Protocol: Stocks of crude extracts and isolated compound of S. nigrum was prepared in DMSO for the in vitro studies and stored at −20° C. The DMSO concentration in all studies, including controls, was ≤0.2%. Cell viability assay was performed after 72 h of drug treatment while whole cell lysate preparation and cell cycle analysis were done after 24 h and 48 h of drug treatment. For studying NF-κB and AP-1, Uttroside B was incubated for 2 h before extraction.
MTT [3-(4,5-dimethylthiazole-2-yl)-2,5-diphenyltetrazolium bromide] assay is a standard colorimetric assay, suitable for analyzing proliferation, viability, and cytotoxicity. Briefly, the HepG2 cells were seeded in 96-well plates (2000 cells/well). […] Fresh media containing 25 μL of MTT solution (5 mg/mL in PBS) and 75 μL of complete medium was added to the wells and incubated for 2 h. At the end of incubation, lysis buffer (20% sodium dodecyl sulphate in 50% dimethyl formamide)was added to the wells (0.1 mL/well) and incubated for another 1 h at 37° C. At the end of incubation, the optical density was measured at 570 nm using ELISA plate reader (Bio-Rad). The relative cell viability in percentage was calculated as (A570 of treated samples/A570 of untreated samples)×100. The IC50 values were extrapolated from polynomial regression analysis of study data.^17

[2] = system: Swiss albino mice; assay: Chronic toxicity study (3 months); type: in vivo
Protocol: Swiss albino mice were randomly divided into 2 groups of 6 animals each and were allowed to acclimatize for a week. Group I received vehicle and Group II received 10 mg/Kg body weight of Uttroside B. The compounds were given as intraperitonial injection on alternate days, thrice in a week, for 3 months. The animals were observed frequently during this period after which, the animals were euthanized in a CO2 chamber. The blood serum was collected for analyzing biochemical parameters of liver function, the abnormal values of which are indicative of hepatotoxicity. The liver was fixed in 10% buffered formalin and the thin cryostat sections were stained with haematoxylin and eosin for histopathological evaluation.^9

[3] = system: HepG2 xenograft tumors; assay: HepG2-xenograft model in NOD-SCID mice; type: in vivo
Protocol: Our next attempt was to validate the anticancer potential of Uttroside B against hepatic cancer, using an in vivo HepG2-xenograft model in NOD-SCID mice. The HepG2 cells suspended in matrigel were subcutaneously injected in the flank region of the mice. The study has been schematically represented in FIG. 6A. Uttroside B, dissolved in PBS, was administered after 15 days of tumor cell implantation when the tumor attained a size of 50-100 mm^3 approximately. Uttroside B (10 mg/kg bw) was injected intraperitoneally, thrice weekly for four weeks. […] The size of the tumor was measured using Vernier calipers every week and the corresponding tumor volume was calculated. […] However, upon sacrifice, very small tumors were observed beneath the skin of animals treated with Uttroside B too, though the size was drastically less compared to that of control animals [FIG. 6B-6C]. […] Although this study was in a mouse the skilled artisan knows that that dose may be converted to human equivalent dosage by simple math. For example the 10 mg/kg body weight for a mouse would convert to a 0.8 mg/kg body weight for a human and result in a range from 0.05 to 1.2 mg/kg body weight.
In vivoHepG2-Xenograft model: All animal studies were performed in accordance with the protocols approved by Institute Animal Ethical Committee IAEC No: 151(b)/RUBY/2012. An ectopic xenograft model in NOD-SCID (NOD.CB17-Prkdcscid/J) mice was used for evaluating the anti-cancer properties of Uttroside B. The animals required for this study were obtained from Animal Research Facility of Rajiv Gandhi Centre for Biotechnology and were fed with standard food pellets and autoclaved water ad libitum. Animal handling, tumor induction, drug treatment and tissue collection were performed in sterile conditions.
Evaluation of the anticancer activity of Uttroside B, isolated from S. nigrum in human liver cancer (HepG2)-xenograft model: xenografts models were established in NOD-SCID mice as described in literature.^10 Male NOD-SCID (NOD.CB17-Prkdc^scid/J) mice of age 6-8 weeks were used for the study. Tumors were induced by subcutaneous injection of HepG2 cells (7×10^6 cells in 100 μL matrigel) in the lower right or left flank of mice and were allowed to grow for a period of two weeks to attain a size of approximately 50-100 mm^3 as measured by Vernier calipers. The mice were then randomly grouped into control and treatment group of 9 animals each. The treatment groups were injected intraperitoneally with Uttroside B (10 mg/kg doses thrice weekly) for one month. Tumor volume was measured every seven days to evaluate tumor growth and drug response. The animals were sacrificed at the end of the study and tumor samples were collected for histopathological and immunohistochemical analysis.
Histopathology: The tissue cryo-sections were washed with PBS (5 min, 2 times) and distilled water for 5 min. Then the sections were stained with hematoxylin for 2 min. Excess stain was washed off and the slides were dipped in differentiation solution for 1-2 s. They were then kept in tap water for 10 min and 70% Isopropyl alcohol for 5 min respectively and were counter stained with eosin solution for 1 min. The sections were then transferred to 100% Isopropyl alcohol and kept for 2 min, cleared in xylene for 1 h and were mounted using DPX. Stained sections were observed using a light microscope and were photographed. The pathology of liver and tumor tissue sections were examined and verified by Dr. Sankar Sundaram, Professor of Pathology, Medical College, Thiruvananthapuram.
Immunohistochemistry of xenograft tissue sections: Immunohistochemical analysis of various proteins in the xenograft tumor tissue sections was performed using the detection kit, as per manufacturer's protocol Super Sensitive™ Polymer-HRP IHC Detection System (Biogenex, Calif., USA). Paraformaldehyde-fixed OCT-embedded tissue sections were kept in PBS for 15 min. […]

[4] = 10 mg/kg bw i.p. thrice weekly, four weeks

In the case of `C[C@H](CC[C@@]1(O)O[C@H]2C[C@H]3[C@@H]4CC[C@H]5C[C@@H](O[C@@H]6O[C@H](CO)[C@H](O[C@@H]7O[C@H](CO)[C@@H](O)[C@H](O[C@@H]8OC[C@@H](O)[C@H](O)[C@H]8O)[C@H]7O[C@@H]7O[C@H](CO)[C@@H](O)[C@H](O)[C@H]7O)[C@H](O)[C@H]6O)CC[C@]5(C)[C@H]4CC[C@]3(C)[C@H]2[C@@H]1C)CO[C@@H]1O[C@H](CO)[C@@H](O)[C@H](O)[C@H]1O` [Uttroside B], the IC50 [1] is reported as 500 nM, the “histopathological analysis of liver tissue, chronic” value ([2]; 10 mg/kg) is reported as “did not manifest any morphological change characteristic of toxicity” and the “total and differential WBC count, serum AST, ALT, ALP and BUN” value ([2]; 10 mg/kg i.p. thrice weekly, 3 months) is reported as “no significant difference in any of these parameters from their normal range of values”. The “cleaved PARP expression in tumor sections (IHC)” value [3, 4] was “Significant upregulation in the expression of cleaved PARP”, the “externally visible tumor at end of treatment” value [3, 4] was “no tumor was visible externally” and the “histopathology (H&E) of tumor mass” value [3, 4] was “massive destruction of cells”. The “tumor volume vs control” value [3, 4] was “significantly low”, the “tissue level expression of LC3 (IHC)” value ([3]; HepG2 xenograft tumor sections) was “very high” and the “tissue level expression of beclin-1 (IHC)” value ([3]; HepG2 xenograft tumor sections) was “very high”. For the same compound, the “phosphorylation status of p70S6K and 4E-BP-1 in xenograft tumor tissue” value ([3]; immunohistochemical staining, NOD-SCID mice) was “significant down-regulation in the phosphorylation status”.
